Assay [1] deals with Recombinant Human Siglec-3/CD33 protein (His-CD33) (Homo sapiens (Human), UniProt P20138). Put plainly: Differential scanning fluorimetry (DSF) thermal shift assay. It is filed as binding.
Assay [2] deals with Recombinant human CD33 protein (Homo sapiens (Human), UniProt P20138). As to the kind of experiment: CD33 competitive binding assay for HTS drug screen (fluorescent multivalent sialic acid probe). An outline of the steps:
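Recombinant human CD33, coated overnight at 4° C from 10 μg/ml in pH 5.5 acetate, was preincubated briefly with compound. It was then exposed to a multivalent neutravidin/FITC/sialic acid analog A-375 probe (final 5 μM neutravidin, 15 μM A-375, 5 μM FITC) for 30 min at room temperature. After washing, bound FITC fluorescence was read.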

The mark [3] stands for this setting: difference in thermal melt of CD33 protein (0.5 μM) with 50 μM compound.
The mark [4] stands for this setting: thermal melt shift of 0.5 μM CD33 protein with 50 μM compound.

Where only a bound is given, the exact number is not on record here.

Sequence of Recombinant Human Siglec-3/CD33 protein (His-CD33) (P20138 18-259): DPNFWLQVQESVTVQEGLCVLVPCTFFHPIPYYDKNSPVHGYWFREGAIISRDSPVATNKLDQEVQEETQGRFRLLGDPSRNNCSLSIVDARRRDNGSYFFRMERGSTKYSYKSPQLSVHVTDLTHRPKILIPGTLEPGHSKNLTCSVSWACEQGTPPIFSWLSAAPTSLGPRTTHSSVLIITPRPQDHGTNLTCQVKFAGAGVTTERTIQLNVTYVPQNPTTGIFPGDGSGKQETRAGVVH
Sequence of Recombinant human CD33 protein (P20138 18-259): as above

Broadly, the EC50 is the concentration needed to bring the measured effect to its halfway point. Consider `CC(=O)N[C@H]1[C@H]([C@H](O)[C@H](O)CNC(=O)c2cc(C)c(O)c(C)c2)O[C@@](CC2OC(C)(C)O[C@H]2c2cc(N3CCCC3=O)ccc2C)(C(=O)O)C[C@@H]1O` (some centres unmarked) [A-318], for which, in assay [1] (setting [3]), the “DSF (dTmD)” value was 7.4 °C. Also, the EC50 in assay [2] came to 130 nM.
Taken in the same sequence, the figures for `Cc1cc2cc(C)c1OCCCNC(=O)CCCCCC[C@]1(C(=O)O)C[C@H](O)[C@@H](NC(=O)Cn3cc(C4CCCCC4)nn3)[C@@H](O1)[C@H](O)[C@H](O)CNC2=O` [A-345] were 3.2 °C and 21400 nM.
Taken in the same sequence, the figures for `CC(=O)N[C@H]1[C@H]([C@H](O)[C@H](O)CNC(=O)c2cc(C)c(O)c(C)c2)O[C@@](C[C@H]2COC[C@@]3(CCN(C(=O)OC(C)(C)C)C3)N2)(C(=O)O)C[C@@H]1O` [A-227] were 14.6 °C and 12 nM.
For `CC(=O)N[C@H]1[C@H]([C@H](O)[C@H](O)CNC(=O)c2cnn(C)c2)O[C@@](CCN2CCOC[C@@]23CCN(C(=O)OC(C)(C)C)C3)(C(=O)O)C[C@@H]1O` [A-177], in assay [1] (setting [4]), the “DSF (dTmD)” value was 7.5. Besides, the EC50 in assay [2] turned out to be 670 nM.
For `CC(=O)N[C@H]1[C@H]([C@H](O)[C@H](O)CNC(=O)c2cn[nH]c2)O[C@@](CCN2CCOC[C@@]23CCN(C(=O)OC(C)(C)C)C3)(C(=O)O)C[C@@H]1O` [A-161], in that order: 5.9 and 1080 nM.
With `Cc1cc(C(=O)NC[C@@H](O)[C@@H](O)[C@@H]2O[C@@](C/C=C/c3cccc(CNC(=O)C4CCCOC4)c3)(C(=O)O)C[C@H](O)[C@H]2NC(=O)Cn2cc(C3CCCCC3)nn2)cc(C)c1O` (some centres unmarked) [A-260], the “DSF (dTmD)” value in assay [1] (setting [3]) was found to be 4.2 °C. The EC50 in assay [2] was 7940 nM.
For `CC(=O)N[C@H]1[C@H]([C@H](O)[C@H](O)CNC(=O)c2cc(C)c(O)c(C)c2)O[C@@](CC2OC(C)(C)O[C@H]2c2cccc(N3CCCCC3=O)c2)(C(=O)O)C[C@@H]1O` (some centres unmarked) [A-316], in that order: 3.8 °C and 4860 nM.
For the compound `CC(=O)N[C@H]1[C@H]([C@H](O)[C@H](O)CNC(=O)c2cc(F)c(F)c(F)c2)O[C@@](CCN2CCOC[C@@]23CCN(C(=O)OC(C)(C)C)C3)(C(=O)O)C[C@@H]1O` [A-185], in assay [1] (setting [4]), the “DSF (dTmD)” value was determined as 5.0. Besides, the EC50 in assay [2] is 3600 nM.
In the case of `CC(=O)N[C@H]1[C@H]([C@H](O)[C@H](O)CNC(=O)c2ccc3[nH]nc(C)c3c2)O[C@@](CCN2CCOC[C@@]23CCN(C(=O)OC(C)(C)C)C3)(C(=O)O)C[C@@H]1O` [A-125], the “DSF (dTmD)” value in assay [1] (setting [4]) was found to be 13.3. The EC50 in assay [2] is 23 nM.
Taken in the same sequence, the figures for `CC(=O)N[C@H]1[C@H]([C@H](O)[C@H](O)CNC(=O)c2ccc(C(F)(F)F)c(C)c2)O[C@@](CCN2CCOC[C@@]23CCN(C(=O)OC(C)(C)C)C3)(C(=O)O)C[C@@H]1O` [A-144] were 11.0 and 230 nM.
For the compound `CC(=O)N[C@H]1[C@H]([C@H](O)[C@H](O)CNC(=O)c2cc(C)c(O)c(C)c2)O[C@@](CCN2CCCC23CN(C(=O)OC(C)(C)C)C3)(C(=O)O)C[C@@H]1O` [A-017], the “DSF (dTmD)” value in assay [1] (setting [4]) is recorded as 1.2. Also, the EC50 in assay [2] was 1560 nM.
For `CC(=O)N[C@H]1[C@H]([C@H](O)[C@H](O)CNC(=O)c2cc(C)c(O)c(C)c2)O[C@@](CCN2CCNC[C@]23CCN(C(=O)OC(C)(C)C)C3)(C(=O)O)C[C@@H]1O` [A-013], in that order: 11.4 and 35 nM.
For `CC(=O)N[C@H]1[C@H]([C@H](O)[C@H](O)CNC(=O)c2ccc3[nH]cc(C)c3c2)O[C@@](CCN2CCOC[C@@]23CCN(C(=O)OC(C)(C)C)C3)(C(=O)O)C[C@@H]1O` [A-112], in that order: 12.5 and 22 nM.
`CC(=O)N[C@H]1[C@H]2O[C@](C(=O)O)(C/C=C/CCC[C@@H](NC(=O)[C@@H]3CCCOC3)c3cccc(c3)COc3c(C)cc(cc3C)C(=O)NC[C@@H](O)[C@H]2O)C[C@@H]1O` [A-354]: the “DSF (dTmD)” value in assay [1] (setting [3]) was determined as 1.5 °C. In addition, the EC50 in assay [2] came out at 27500 nM.
For `CC(=O)N[C@H]1[C@H]([C@H](O)[C@H](O)CNC(=O)c2nc(C)oc2C)O[C@@](CCN2CCOC[C@@]23CCN(C(=O)OC(C)(C)C)C3)(C(=O)O)C[C@@H]1O` [A-140], the “DSF (dTmD)” value in assay [1] (setting [4]) was 7.5. In assay [2], the EC50 was 350 nM.
Regarding `CC(=O)N[C@H]1[C@H]([C@H](O)[C@H](O)CNC(=O)c2cc(C)c(O)c(C)c2)O[C@@](C/C=C/c2cccc(CNC(=O)c3ccc4[nH]c(-c5c[nH]c6ccccc56)cc4c3)c2)(C(=O)O)C[C@@H]1O` [A-250], the “DSF (dTmD)” value in assay [1] (setting [3]) came to 8.4 °C. Also, in assay [2], the EC50 is 3260 nM.
For `Cc1cc(C(=O)NC[C@@H](O)[C@@H](O)[C@@H]2O[C@@](OCCOCCNC(=O)OCc3ccccc3)(C(=O)O)C[C@H](O)[C@H]2NC(=O)Cn2cc(C3CCCCC3)nn2)cc(C)c1O` [A-323], in that order: 4.4 °C and 10900 nM.
As to `CC(=O)N[C@H]1[C@H]([C@H](O)[C@H](O)CNC(=O)c2ccc(C)c(F)c2)O[C@@](CCN2CCOC[C@@]23CCN(C(=O)OC(C)(C)C)C3)(C(=O)O)C[C@@H]1O` [A-149], the “DSF (dTmD)” value in assay [1] (setting [4]) turned out to be 10.7. Moreover, the concentration for a half-maximal effect (EC50) in assay [2] amounted to 133 nM.
As for `Cc1cc(C(=O)NC[C@@H](O)[C@@H](O)[C@@H]2O[C@@](C/C=C/c3cccc(CNC(=O)c4ccc(Cl)cc4)c3)(C(=O)O)C[C@H](O)[C@H]2NC(=O)Cn2cc(C3CCCCC3)nn2)cc(C)c1O` [A-263], the “DSF (dTmD)” value in assay [1] (setting [3]) amounted to 3.5 °C. Also, the EC50 in assay [2] came out at 4000 nM.
Regarding `CC(=O)N[C@H]1[C@H]([C@H](O)[C@H](O)CNC(=O)c2cc(C)c(O)c(C)c2)O[C@@](CC2OC(C)(C)O[C@@H]2c2cccc(C(=O)NCc3ccccc3)c2)(C(=O)O)C[C@@H]1O` (some centres unmarked) [A-312], the “DSF (dTmD)” value in assay [1] (setting [3]) turned out to be 4.5 °C. Also, the EC50 in assay [2] amounted to 159 nM.
For `CC(=O)N[C@H]1[C@H]([C@H](O)[C@H](O)CNC(=O)c2cc(C)c(O)c(C)c2)O[C@](C#N)(CCN2CCOC[C@@]23CCN(C(=O)OC(C)(C)C)C3)C[C@@H]1O` [A-362], in that order: −0.3 °C and more than 100000 nM.
With `CC(=O)N[C@H]1[C@H]([C@H](O)[C@H](O)CNC(=O)c2ccc(O)c(NC=O)c2)O[C@@](CCN2CCOC[C@@]23CCN(C(=O)OC(C)(C)C)C3)(C(=O)O)C[C@@H]1O` [A-152], the “DSF (dTmD)” value in assay [1] (setting [4]) is given as 7.4. In addition, in assay [2], the EC50 amounted to 510 nM.
As for `CC(=O)N[C@H]1[C@H]([C@H](O)[C@H](O)CNC(=O)c2cc(C)c(O)c(C)c2)O[C@@](CCN2CCOC[C@@]23CCN(C(=O)OC(C)(C)C)C3)(C(=O)O)C[C@]1(C)O` [A-200], the “DSF (dTmD)” value in assay [1] (setting [3]) was determined as 8.7 °C. Also, the half-maximal effective concentration (EC50) in assay [2] stood at 131 nM.
In the case of `CC(=O)N[C@H]1[C@H]([C@H](O)[C@H](O)CNC(=O)c2cc(C)c(O)c(C)c2)O[C@@](CCN2CCOC[C@@]23CCN(C(=O)C2(C(F)(F)F)CCCCC2)C3)(C(=O)O)C[C@@H]1O` [A-102], the “DSF (dTmD)” value in assay [1] (setting [4]) is 7.5. The EC50 in assay [2] is 397 nM.
Consider `CC(=O)N[C@H]1[C@H]([C@H](O)[C@H](O)CNC(=O)c2cc(C)c(O)c(C)c2)O[C@@](C/C=C/c2cccc(CNC(=O)c3ccc4[nH]cnc4c3)c2)(C(=O)O)C[C@@H]1O` [A-236], for which the “DSF (dTmD)” value in assay [1] (setting [3]) came out at 4.4 °C. In assay [2], the EC50 was determined as 2010 nM.
Taken in the same sequence, the figures for `Cc1cc(C(=O)NC[C@@H](O)[C@@H](O)[C@@H]2O[C@@](C/C=C/c3ccccc3)(C(=O)O)C[C@H](O)[C@H]2NC(=O)Cn2cc(C3CCCCC3)nn2)cc(C)c1O` [A-283] were 2.1 °C and 102000 nM.
Taken in the same sequence, the figures for `CC(=O)N[C@H]1[C@H]([C@H](O)[C@@](C)(O)CNC(=O)c2cc(C)c(O)c(C)c2)O[C@@](CCN2CCOC[C@@]23CCN(C(=O)OC(C)(C)C)C3)(C(=O)O)C[C@@H]1O` [A-205] were 3.5 °C and 1820 nM.
Take `CC(=O)N[C@H]1[C@H]([C@H](O)[C@H](O)CNC(=O)c2cc(C)c(O)c(C)c2)O[C@@](C[C@@H]2COC[C@]3(CCN(C(=O)OC(C)(C)C)C3)N2)(C(=O)O)C[C@@H]1O` [A-229]: the “DSF (dTmD)” value in assay [1] (setting [3]) came out at 13.0 °C. Moreover, the EC50 in assay [2] was 22 nM.
Regarding `CC(=O)N[C@H]1[C@H]([C@H](O)[C@H](O)CNC(=O)c2cc(C)c(O)c(C)c2)O[C@@](CCN2CCN(C(C)=O)C[C@]23CCN(C(=O)OC(C)(C)C)C3)(C(=O)O)C[C@@H]1O` [A-015], the “DSF (dTmD)” value in assay [1] (setting [4]) was 3.8. For the same compound, the EC50 in assay [2] turned out to be 3340 nM.
Regarding `CC(=O)N[C@H]1[C@H]([C@H](O)[C@H](O)CNC(=O)c2cc(C)c(O)c(C)c2)O[C@@](CC(O)[C@@H](O)c2cccc(NC(=O)CC(C)(C)C)c2)(C(=O)O)C[C@@H]1O` (some centres unmarked) [A-304], the “DSF (dTmD)” value in assay [1] (setting [3]) worked out at 3.9 °C. Besides, the EC50 in assay [2] worked out at 4700 nM.
For `CC(=O)N[C@H]1[C@H]([C@H](O)[C@H](O)CNC(=O)c2cc(C)c(O)c(C)c2)O[C@@](C/C=C/c2cccc(CNC(=O)C3CCC(Nc4ncccn4)CC3)c2)(C(=O)O)C[C@@H]1O` (some centres unmarked) [A-253], in that order: 9.6 °C and 195 nM.
Take `CC(=O)N[C@H]1[C@H]([C@H](O)[C@H](O)CNC(=O)c2cc(C)c(O)c(C)c2)O[C@@](CCN2CCNC[C@@]23CCN(C(=O)OC(C)(C)C)C3)(C(=O)O)C[C@@H]1O` [A-012]: in assay [1] (setting [4]), the “DSF (dTmD)” value worked out at 12.6. For the same compound, the EC50 in assay [2] came to 22 nM.
Take `Cc1cc2cc(C)c1OCc1cccc(c1)[C@H](NC(=O)C1CCCOC1)CCC/C=C/C[C@]1(C(=O)O)C[C@H](O)[C@@H](NC(=O)Cn3cc(C4CCCCC4)nn3)[C@@H](O1)[C@H](O)[C@H](O)CNC2=O` (some centres unmarked) [A-356]: the “DSF (dTmD)” value in assay [1] (setting [3]) is 4.8 °C. The EC50 in assay [2] was 1510 nM.
Taken in the same sequence, the figures for `Cc1cc2cc(C)c1OCCNC(=O)CCCCCCCC[C@]1(C(=O)O)C[C@H](O)[C@@H](NC(=O)Cn3cc(C4CCCCC4)nn3)[C@@H](O1)[C@H](O)[C@H](O)CNC2=O` [A-347] were 3.6 °C and 19000 nM.

The values are drawn from patent publication US20250313574A1, “SIALIC ACID DERIVATIVES AND METHODS OF USING SAME” (EISAI R&D MANAGEMENT CO., LTD., priority 2022, published 2025).
